pIC50: −log10 of the molar value. Where two headings read alike, the source gives them in different places.
Key:
COX-1 = target: T1, COX-1 (Ovis aries, UniProt P05979); assay: In vitro COX-1 enzyme assay
T1 sequence (P05979 25-600): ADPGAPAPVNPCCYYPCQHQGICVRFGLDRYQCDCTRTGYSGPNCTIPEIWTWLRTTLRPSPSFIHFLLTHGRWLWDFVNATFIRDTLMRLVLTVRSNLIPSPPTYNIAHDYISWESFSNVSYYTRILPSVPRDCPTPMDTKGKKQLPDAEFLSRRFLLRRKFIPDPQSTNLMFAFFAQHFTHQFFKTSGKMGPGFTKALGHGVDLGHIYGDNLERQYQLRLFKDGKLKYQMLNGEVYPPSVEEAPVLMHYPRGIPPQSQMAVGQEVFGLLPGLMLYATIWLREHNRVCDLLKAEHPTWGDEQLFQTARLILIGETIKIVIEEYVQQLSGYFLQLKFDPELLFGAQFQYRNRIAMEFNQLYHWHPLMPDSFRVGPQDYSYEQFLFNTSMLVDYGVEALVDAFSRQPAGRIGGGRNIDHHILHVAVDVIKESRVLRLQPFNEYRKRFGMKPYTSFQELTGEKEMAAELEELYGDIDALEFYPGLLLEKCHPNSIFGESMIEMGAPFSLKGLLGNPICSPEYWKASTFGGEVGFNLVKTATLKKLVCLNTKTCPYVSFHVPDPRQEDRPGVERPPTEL

HaCaT cells = assay: Inhibition of UVB-induced PGE2 secretion from HaCaT keratinocytes (PGE2 ELISA); assay type: cell-based; settings: for μg/ml to inhibit 80% of PGE2 secretion: UVB-irradiated HaCaT cells
Method: The HaCaT keratinocyte cell line was cultured in GibcoBRL (Grand Island, N.Y.) D-MEM low glucose medium containing 10% heat inactivated fetal bovine serum, 1% penicillin/streptomycin, 1% L-glutamine, and 1% nonessential amino acids. […] The media was harvested 24 hours after UVB irradiation and analyzed for prostaglandin E2 (PGE2) content using a PGE2 ELISA kit (R & D Systems Catalogue Number DE0100).
The observation that the selectivity of the Evodia rutaecarpa extract (216, see Example 1) was greater than the selectivity of purified BHT (87, Table 3) led us to conclude that there is synergy among the components in inhibiting COX-2. Initial data is consistent with this synergy existing also in the biomimetic of the present invention. The ability of BHT to inhibit PG secretion from UVB-irradiated HaCaT cells was examined by treating cells with BHT immediately after UVB irradiation. The media was harvested 24 hours later and analyzed for PGE2 content using a PGE2 ELISA kit (R & D Systems, Minneapolis, Minn., USA). BHT inhibited UVB-induced PG secretion at 2-20 μg/ml, which is in the range of the IC50 for inhibition of COX-2 in vitro.
The preferred Evodia mixture of Table 4 was examined for its ability to inhibit UVB-induced PGE2 secretion from HaCaT cells. […] This illustrates the discovery that the Evodia rutaecarpa extract contains a compound which blocks this activity and that when the inhibitor is removed the components act synergistically to inhibit UVB-induced PGE2. The preferred Evodia mixture was also effective at inhibiting the COX-2 enzyme in vitro. […] Thus, while the Evodia mixture is useful for inhibiting UVB-induced PGE2 secretion from skin cells when used at 0.01% (v/v) (FIG. 4), for inflammatory conditions mediated exclusively by COX-2, the preferred formulation would contain at least 1% (v/v) Evodia mixture.

COX-2 = target: T2, COX-2 (Homo sapiens, UniProt P35354); assay: In vitro purified COX-2 enzyme assay (Cayman COX Inhibitor Screening Assay); assay type: biochemical; settings: for IC50: read-out: IC50 COX-2 (converted)
T2 construct: purchased Cayman, Ann Arbor, Mich
T2 sequence (P35354 18-604): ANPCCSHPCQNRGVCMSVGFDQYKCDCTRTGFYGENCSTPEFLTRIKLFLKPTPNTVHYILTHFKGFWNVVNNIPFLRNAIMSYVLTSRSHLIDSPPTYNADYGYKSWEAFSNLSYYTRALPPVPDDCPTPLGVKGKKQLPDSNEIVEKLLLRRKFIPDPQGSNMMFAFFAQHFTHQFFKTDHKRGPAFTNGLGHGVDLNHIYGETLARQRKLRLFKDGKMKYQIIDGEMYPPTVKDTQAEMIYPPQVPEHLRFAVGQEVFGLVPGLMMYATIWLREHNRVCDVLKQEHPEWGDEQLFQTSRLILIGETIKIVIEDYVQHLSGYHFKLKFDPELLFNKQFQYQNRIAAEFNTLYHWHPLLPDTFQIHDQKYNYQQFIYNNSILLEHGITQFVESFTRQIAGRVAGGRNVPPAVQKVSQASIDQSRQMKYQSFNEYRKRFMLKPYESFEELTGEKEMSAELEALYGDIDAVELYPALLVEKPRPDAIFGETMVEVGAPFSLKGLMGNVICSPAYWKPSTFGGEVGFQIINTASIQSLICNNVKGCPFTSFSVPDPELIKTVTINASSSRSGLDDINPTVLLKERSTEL
Method: It is well known that the major source of inducible prostaglandin release from cells is related to induction of cyclo-oxygenase 2 (COX-2). […] The assay was a commercially available COX Inhibitor Screening Assay (Cayman, Ann Arbor, Mich.) run according to the manufacturer's instructions.
Fractions were analyzed for COX-2 inhibitory activity using the in vitro assay employed in the previous example.

human skin = assay: Methyl nicotinate-induced erythema in human skin (Dermaspectrometer); assay type: in vivo; settings: hydrogel lotion; Evodia mixture 1% (v/v) = 60.8 μg/ml actives, bisabolol 61 μg/ml
Method: Each application area was demarked by an adjacent label made with a permanent black ink marker. One hour prior to the methyl nicotinate challenge dose, the Evodia mixture lotion was applied liberally to treatment spots. A Carbopol® hydrogel lotion containing no Evodia mixture was used as a vehicle control. […] Immediately thereafter, 10 μL of a 0.14 mg/ml methyl nicotinate solution in water was applied to each treatment spot. Erythema was read 15, 30, 60 and 90 minutes later. […] Results for all the subjects were calculated as change of erythema readings from time zero.
The same protocol as described above was followed with five sites treated twice daily for two weeks. Three sites were treated with test articles of 0.1%, 0.3% and 1.0% (v/v) Evodia mixture in hydrogel lotion, one site was treated with a vehicle control lotion and one site was not treated with either lotion or methyl nicotinate.
A side by side comparison was made between the Evodia mixture and bisabolol, each formulated in a hydrogel lotion, with bisabolol equal to the total amount of actives in the Evodia mixture.

[1] = tested on: human microvascular endothelial cells (HMVEC); assay: Nitric oxide release from endothelial cells treated with methyl nicotinate (Greiss reagents); assay type: cell-based; settings: 24 hours; at much lower concentrations than for PGD2 and PGE2 (FIG. 5B)
Method: (§1) Normal human epidermal keratinocytes (NHEK) and human microvascular endothelial cells (HMVEC) were obtained from a commercial supplier (Cascade Biologics, Portland, Oreg., USA) and cultured according to the manufacturer's recommendations. Methyl nicotinate was made up as a IM stock solution in H2O. The stock solution was diluted to 100 mM in H2O. The 100 mM methyl nicotinate was further diluted to 125 to 1000 μM methyl nicotinate in the cell culture media and the NHEK and HMVEC cells were treated when they had grown to approximately 70% confluency with fresh media containing the methyl nicotinate. After 24 hours of incubation in the methyl nicotinate media, the cultured media was collected. Nitric oxide was measured using the Greiss reagents as described in the Calbiochem colorimetric nitric oxide assay kit (Calbiochem, San Diego, Calif.). PGs in the cell culture media were analyzed using commercially available PGD2 and PGE2 ELISA kits (R & D Systems, Minneapolis, Minn., USA). […] This is in accordance with studies on human skin showing that erythema induced by topical application of methyl nicotinate is mediated by PGD2 (Morrow et al., 1992). […] Since NO is a vasodilatory agent that induces skin erythema, methyl nicotinate can thus induce skin erythema by induction of NO as well as via induction of PGD2 and PGE2. […]

[2] = tested on: normal human epidermal keratinocytes (NHEK); assay: Prostaglandin secretion from cultured skin cells treated with methyl nicotinate (PGD2 and PGE2 ELISA); assay type: cell-based; settings: NHEK and also HMVEC, 125 to 1000 μM
Method: as §1

For `Cc1cc(C(C)(C)C)c(O)c(C(C)(C)C)c1` [Butylated Hydroxytoluene (BHT), butylated hydroxytoluene], the pIC50 (COX-1) was 2.23, the “concentration inhibiting UVB-induced PG secretion” value (HaCaT cells; cells treated immediately after UVB, media harvested 24 hours later) was 2 to 20 µg/mL and the IC50 (COX-2; in vitro) was 68.1 µM. The “Selectivity COX-1/COX-2” value (COX-2; ratio of IC50s) was 87.

`C[C@H]1[C@H](C)CC[C@]2(C(=O)O)CC[C@]3(C)C(=CC[C@@H]4[C@@]5(C)CC[C@H](O)C(C)(C)[C@@H]5CC[C@]43C)[C@H]12` [Ursolic Acid (URA), ursolic acid] showed an IC50 (COX-2; in vitro) of 59.1 µM.

In the case of `CC(C)=CCC[C@](C)(O)C1CC=C(C)CC1` (stereo partly drawn) [bisabolol], the “effect on methyl nicotinate mediated erythema, side by side comparison” value (human skin) was “ineffective”.

Work on `C[n+]1c2n(c(=O)c3ccccc31)CCc1c-2[nH]c2ccccc12` [dehydroevodiamine] yielded a pIC50 (COX-2; in vitro, read-out: μg/ml to inhibit 50% of COX-2 activity) of less than 4.61.

With `COC(=O)c1cccnc1` [methyl nicotinate] the “NO secretion from HMVEC” value [1] was “induced”, the PGD2 secretion ([2]; 24 hours (FIG. 5A)) was “induced” and the PGE2 secretion ([2]; 24 hours (data not shown)) was “induced”.

With `O=c1c2ccccc2nc2n1CCc1c-2[nH]c2ccccc12` [rutaecarpine] the “μg/ml to inhibit 80% of PGE2 secretion” value (HaCaT cells) was 0.3 µg/mL.

With evodiamine the “μg/ml to inhibit 80% of PGE2 secretion” value (HaCaT cells) was 0.3 µg/mL.
